Read-outs that look alike come from different tables or passages of the source. Marks after values point to notes of the source that are not given here.

Experiment [1] deals with GluN1/GluN2D NMDARs (Rattus norvegicus, UniProt P35439+Q62645). Briefly: Two-electrode voltage-clamp recordings, Xenopus laevis oocytes expressing GluN1/GluN2D. In kind it is cell-based. To be noted: for Emax: read-out: Maximal Degree of Modulation (% of control). On the procedure:
cDNAs for rat wild type NMDAR subunits GluN1-1a (GenBank U11418, U08261; hereafter GluN1 or GluN1a), GluN1-1b (U08263, hereafter GluN1b), GluN2A (D13211), GluN2B (U11419), Glu[…]), and Glu[…], modified as described in [Monyer et al., 1994]) were provided by Drs. S. Heinemann (Salk Institute), S. Nakanishi (Kyoto University), and P. Seeburg (University of Heidelberg). Site-directed mutagenesis was conducted using the QuikChange kit (Agilent Technologies, Santa Clara, CA) following the recommended protocol. DNA sequencing was used to verify all mutations. The amino acid numbering system started with the initiating methionine as residue number one. For expression in Xenopus laevis oocytes, cDNA constructs were linearized by restriction enzymes, and subsequently used to synthesize in vitro cRNAs following the manufacturer's protocol (mMessage mMachine, Ambion, ThermoFisher Scientific, Waltham, MA). […] All extracellular solutions were made from a solution containing (in mM) 90 NaCl, 1 KCl, 10 HEPES, 0.5 BaCl2, 0.01 EDTA (pH 7.4 with NaOH). Experiments were performed using an eight port Modular Valve Positioner (Hamilton Company, Reno, NV) and controlled by custom software (Easy Oocyte, Emory University, Atlanta, GA)to exchange solutions. Oocyte currents were recorded at a holding potential of -40 mV using a two-electrode voltage-clamp amplifier (OC-725B or OC-725C, Warner Instruments, Hamden, CT). […] Measurements are given as mean ± SEM unless otherwise indicated. […] EC50 and IC50 values and confidence intervals reported were calculated by averaging the log(EC50) or log(IC50) value, determining confidence intervals for mean log(EC50) or log(IC50), and converting back to units of molarity. Statistical significance evaluations (α set to 0.05) were performed using a one-way ANOVA with Dunnett's multiple comparison test, a paired t-test, or other appropriate tests as described.
On the technique in general: Two-electrode voltage clamp is typically applied to oocytes expressing channels or transporters.

Experiment [2] has as its system NMDARs. Put plainly: Whole-cell recordings of modulation at +40 mV and -60 mV (voltage dependence). It is filed as cell-based, rat. To be noted: 10 µM test compound. As to the method: Figure 4. The association and dissociation time course of EU1794-2, EU1794-4 and EU1794-27 differ at GluN1/GluN2A and GluN1/GluN2D. (A) Representative whole-cell current recordings of GluN1/GluN2D NMDARs exemplifying the modulation time course of EU1794-2, EU1794-4 and EU1794-27 (1, 3, 10 µM). […] Insets show the steady state modulation extent from the HEK cell experiments fit by the Hill equation (Hill slope fixed to 1). (B) Analysis of the time course for the onset of PAM and NAM action as a function of concentrations for EU1794-2 (left), EU1794-4 (left) and EU1794-27 (right) used to determine the association rate kON (black circles) and dissociation rate kOFF (grey squares), from which we can calculate Kd for each modulator. Data are from at least 3 cells for each concentration of modulator. For EU1794-27 the association and dissociation rate linear component was also found to be concentration dependent (mon = −0.98 pA/(ms*µM), moff = 0.62 pA/(ms*µM)). (C,D) Similar set of panels as A,B but examining EU1794-2, EU1794-4 and EU1794-27 modulation of GluN1/GluN2A. In example recordings, all modulator concentrations are 10 µM. Data are from at least 3 cells for each concentration of modulator. For EU1794-27 time-course was fitted with the sum of an exponential and linear function, and both the time constant and slope were concentration dependent (mon = −0.33 pA/(s*µM), moff = 0.16 pA/(s*µM)). Figure 4—figure supplement 1. The actions of EU1794 modulators are voltage-independent and are influenced by the desensitization level. (A–C) A representative current response of EU1794-2 (A, the ratio of the % modulation by EU1794-2 at +40 mV and −60 mV was 1.1 ± 0.27, n = 3), EU1794-4 (B, the ratio of modulation at +40 mV and −60 mV was 0.88 ± 0.06, n = 6) and EU1794-27 (C, the ratio of modulation at +40 mV and −60 mV was 0.99 ± 0.15, n = 3) modulation with the Vm held at +40 mV and −60 mV; all responses shown were using 10 µM of test compound. […]

The mark [3] stands for this setting: glutamate/glycine 100/30 µM, no second modulator (+EU1794-27 0 µM), read-out: IC50 (µM) [conf. int.].
[4] abbreviates: saturating glutamate/glycine 100/30 µM, mean [95% CI], read-out: EC50 (µM) [conf. int.].
[5] abbreviates: saturating glutamate/glycine 100/30 µM, mean ± SEM.
[6] abbreviates: sub-saturating glutamate/glycine 0.6/0.2 µM, read-out: EC50 (µM) [conf. int.].
Setting [7] is: sub-saturating glutamate/glycine 0.6/0.2 µM.

GluN1/GluN2D NMDARs, sequence (Q62645 28-1323, other chains not shown): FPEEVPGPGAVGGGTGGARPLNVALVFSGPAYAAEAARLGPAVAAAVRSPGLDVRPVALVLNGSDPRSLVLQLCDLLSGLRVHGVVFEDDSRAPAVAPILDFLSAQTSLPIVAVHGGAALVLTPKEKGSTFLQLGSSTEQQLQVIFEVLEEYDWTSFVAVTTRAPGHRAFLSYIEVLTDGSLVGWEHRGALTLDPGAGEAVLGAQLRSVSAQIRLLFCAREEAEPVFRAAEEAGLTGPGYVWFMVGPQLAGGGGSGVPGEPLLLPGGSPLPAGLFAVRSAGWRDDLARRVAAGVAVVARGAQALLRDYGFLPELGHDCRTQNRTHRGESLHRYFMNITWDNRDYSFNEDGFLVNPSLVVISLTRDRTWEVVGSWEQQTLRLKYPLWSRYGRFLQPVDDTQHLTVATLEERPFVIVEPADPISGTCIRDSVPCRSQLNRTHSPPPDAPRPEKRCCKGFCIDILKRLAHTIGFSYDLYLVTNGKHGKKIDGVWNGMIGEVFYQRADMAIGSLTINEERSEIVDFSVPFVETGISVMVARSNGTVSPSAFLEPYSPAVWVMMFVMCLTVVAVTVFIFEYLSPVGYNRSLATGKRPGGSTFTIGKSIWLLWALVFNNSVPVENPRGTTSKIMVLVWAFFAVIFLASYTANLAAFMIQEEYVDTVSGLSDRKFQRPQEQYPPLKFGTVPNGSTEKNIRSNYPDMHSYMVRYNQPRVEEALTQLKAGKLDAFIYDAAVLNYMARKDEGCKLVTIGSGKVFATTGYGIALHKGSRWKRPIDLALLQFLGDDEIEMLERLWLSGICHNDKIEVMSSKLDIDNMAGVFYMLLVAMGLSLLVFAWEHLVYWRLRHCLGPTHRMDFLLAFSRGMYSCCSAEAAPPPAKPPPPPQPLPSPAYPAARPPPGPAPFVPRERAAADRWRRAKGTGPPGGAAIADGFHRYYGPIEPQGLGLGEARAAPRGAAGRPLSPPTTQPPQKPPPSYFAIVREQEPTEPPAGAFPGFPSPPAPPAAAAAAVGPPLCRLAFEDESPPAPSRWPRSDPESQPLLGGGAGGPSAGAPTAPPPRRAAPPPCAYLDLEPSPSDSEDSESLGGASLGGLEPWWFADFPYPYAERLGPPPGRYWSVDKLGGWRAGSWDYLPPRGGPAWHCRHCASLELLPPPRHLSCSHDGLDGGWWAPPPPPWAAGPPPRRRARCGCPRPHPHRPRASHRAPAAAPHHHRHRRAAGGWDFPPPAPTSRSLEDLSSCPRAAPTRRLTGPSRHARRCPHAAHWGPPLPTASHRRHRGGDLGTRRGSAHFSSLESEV

As usually defined, the IC50 is the concentration that inhibits the measured activity by half. For orientation: EC50 means the midpoint of the concentration-response curve. `CCOC(=O)c1c(NC(=O)CC2SC(=N)NC2=O)sc2c1CCC(C)C2` (centres unmarked) [EU1794-2, ethyl 2-(2-(2-imino-4-oxothiazolidin-5-yl)acetamido)-6-methyl-4,5,6,7-tetrahydrobenzo[b]thiophene-3-carboxylate]: the concentration for half-maximal inhibition (IC50) in experiment [1] (+EU1794-27 3 µM, glutamate/glycine 100/30 µM, read-out: EU1794-2 IC50 (µM) [conf. int.]) was determined as 1.4 µM; in experiment [1] (+EU1794-27 10 µM, glutamate/glycine 100/30 µM, read-out: EU1794-2 IC50 (µM) [conf. int.]) it was 2.7 µM; in experiment [1] (+EU1794-27 20 µM, glutamate/glycine 100/30 µM, read-out: EU1794-2 IC50 (µM) [conf. int.]) it was 7.3 µM; in experiment [1] (setting [3]) it was 0.2 µM. In addition, the EC50 in experiment [1] (setting [4]) is 0.2 µM; in experiment [1] (setting [6]), 0.32 µM. Moreover, the Emax in experiment [1] (setting [5]) amounted to 14%; in experiment [1] (setting [7]), 24%. The “ratio of the % modulation at +40 mV and −60 mV” value (shortened to “ratio of the % modulation”) in experiment [2] was 1.1 ± 0.27.
In the case of `CCOC(=O)c1c(NC(=O)CC2SC(=N)NC2=O)sc2c1CCCC2` (centres unmarked) [EU1794-4, ethyl 2-(2-(2-imino-4-oxothiazolidin-5-yl)acetamido)-4,5,6,7-tetrahydrobenzo[b]thiophene-3-carboxylate], the “Fold Difference (glutamate EC50)” value in experiment [1] (control vs 10 µM EU1794-4) is listed as 3.9^†. Further, the “Fold Difference (glycine EC50)” value in experiment [1] (control vs 10 µM EU1794-4) is 8.9^†. Further, in experiment [1] (setting [3]), the concentration for half-maximal inhibition (IC50) came out at 0.36 µM. The half-maximal effective concentration (EC50) is 0.36 µM in experiment [1] (setting [4]) and 14 µM in experiment [1] (sub-saturating glutamate/glycine 0.3/0.09 µM, read-out: EC50 (µM) [conf. int.]). Moreover, the Emax in experiment [1] (setting [5]) was 51%; in experiment [1] (sub-saturating glutamate/glycine 0.3/0.09 µM) it was 540%. For the same compound, in experiment [2], the “ratio of the % modulation” value stood at 0.88 ± 0.06.
Turning to `CC(C)(C)OC(=O)c1c(NC(=O)CC2SC(=N)NC2=O)sc2c1CCCC2` (centres unmarked) [EU1794-27, tert-butyl 2-(2-(2-imino-4-oxothiazolidin-5-yl)acetamido)-4,5,6,7-tetrahydrobenzo[b]thiophene-3-carboxylate], the 50% effective concentration (EC50) in experiment [1] (+EU1794-2 1 µM, glutamate/glycine 100/30 µM, read-out: EU1794-27 EC50 (µM) [conf. int.]) came to 7.5 µM; in experiment [1] (+EU1794-2 3 µM, glutamate/glycine 100/30 µM, read-out: EU1794-27 EC50 (µM) [conf. int.]), 7.8 µM; in experiment [1] (setting [4]), 2.4 µM; in experiment [1] (setting [6]), 8.3 µM. In addition, in experiment [1] (control vs 10 µM EU1794-27), the “Fold Difference (glutamate EC50)” value is given as 5.3^†. Besides, in experiment [1] (control vs 10 µM EU1794-27), the “Fold Difference (glycine EC50)” value is given as 4.9^†. The Emax stood at 250% in experiment [1] (setting [5]) and 580% in experiment [1] (setting [7]). Further, in experiment [2], the “ratio of the % modulation” value is 0.99 ± 0.15.
